The subject of series [1] is isolated perfused rat hearts. The experiment in a line: Isolated working rat heart, ischemia/reperfusion, cardiac function (Example 6). The series is classed as in vivo, Sprague-Dawley rats. Here is the method:
Isolated working heart preparation. After completing the feeding protocol, the animals were anesthetized with sodium pentobarbital (80 mg/kg, intraperitoneally) (Abbott Laboratories, North Chicago, Ill., USA), and heparin sodium (500 U/kg, intravenously) (Elkins-Sinn Inc., Cherry Hill, N.J., USA) was used as an anticoagulant. After deep anesthesia, the hearts were excised, the aorta was cannulated, and the hearts were perfused through the aorta in Langendorff mode at a constant (100 cm of water) perfusion pressure at 37° C. with Krebs-Henseleit bicarbonate for a 5 min washout period as described previously. Ray et al. (1999) Free Rad Biol Med 27:160-9.
During the washout period, the left atrium was cannulated, and the Langendorff preparation was switched to the working mode for 10 min with a left atrial filling pressure of 17 cm H2O; the aortic afterload pressure was set to 100 cm of water. At the end of 10 min, the baseline cardiac function such as heart rate (HR, beats/min), aortic flow (AF, ml/min), coronary flow (CF, ml/min), left ventricular developed pressure (LVDP, mmHg) and first derivative of developed pressure (LVdp/dt, mmHg/sec) were recorded. Later, 30 min of global ischemia was initiated by clamping the left atrial inflow and aortic outflow lines at a point close to their origins. After 30 min, reperfusion was initiated for 120 min by unclamping the atrial inflow and aortic outflow lines. The first 10 min of reperfusion was in Langendorff mode to avoid ventricular fibrillation, and then the hearts were switched to an anterograde working mode. Ray et al. (1999) Free Rad Biol Med 27:160-9.
Cardiac function assessment. After 10 min of the working mode, baseline parameters were recorded. To monitor the recovery of the heart, the left ventricular cardiac function was recorded after 60 and 120 min of reperfusion. Six rats were present in each group. […] Coronary flow was measured by timed collection of the coronary effluent dripping from the heart. During the entire experiment, the aortic pressure was monitored using a Gould P23XL pressure transducer (Gould Instrument Systems Inc., Valley View, Ohio, USA) connected to the side arm of the aortic cannula; the signal was amplified using a Gould 6600 series signal conditioner (Gould Instrument Systems Inc.). […] The heart rate, left ventricular developed pressure, and the first derivative of developed pressure were all calculated from the continuously generated pressure signal.
At the end of the 21 days, the animals were sacrificed, their hearts were excised and isolated, and ischemia was induced for 30 min by terminating the coronary flow (as described in the methods section). This was then followed by 2 h of reperfusion in the working mode; during the reperfusion left ventricular function was monitored.

The subject of another series is IR rat heart. Description: Isolated working rat heart I/R: cardiac function, infarct size, apoptosis (Example 7). It counts as in vivo, Sprague-Dawley rats. The conditions noted are these: resveratrol 5 mg/kg/day or Longevinex 100 mg/kg/day, 21 days. As to the method: Methods. Animals. […] Hattori et al., Am. J. Physiol. Heart. Circ. […] Mukherjee et al., Can. J. Pharmol. […] Isolated working heart preparation and assessment of cardiac function. After completing the feeding protocol, the animals were anesthetized with sodium pentobarbital (80 mg/kg, i.p.) (Abbott Laboratories, North Chicago, Ill., USA), and […] heparin sodium (500 IU/kg, i.v.) (Elkins-Sinn Inc., Cherry Hill, N.J., USA) was used as an anticoagulant. […] At the end of 10 min, baseline cardiac function like heart rate (HR, beats/min), aortic flow (AF, ml/min), coronary flow (CF, ml/min), left ventricular developed pressure (LVDP, mmHg) and first derivative of developed pressure (LVdp/dt, mmHg/sec) were recorded. […] Infarct size was measured according to the TTC method. […] To quantitate the areas of infarct in pixels, standard NIH image program was used. The infarct size was quantified and expressed in pixels. […] The fluorescence staining was viewed with a fluorescence microscope (AXIOPLAN2 IMAGING, Carl Zeiss Microimaging Inc., New York) at […] for green fluorescence of fluorescein and at 620 nm for red fluorescence of propidium iodide. The number of apoptotic cells was counted and expressed as a percent of total myocyte population.

Series [2] relates to miRNA expression, rat heart. Description: Global miRNA expression profiling (TLDA array) in ischemia-reperfused rat heart. Particulars: for miR-21 expression, up: vs basal level control heart.
Protocol: Global miRNA expression profiling in ischemia-reperfused rat heart. MicroRNA profiles were analyzed by TLDA array specific for 586 miRNA and five endogeneous control for rat.
Male Sprague-Dawley rats weighing between 250 and 300 g were fed ad libitum regular rat chow with free access to water until the start of the experimental procedure.
Micro RNA isolation and cDNA preparation. Total RNA from rat heart samples were isolated using Trizol reagent (Invitrogen) and further purified using mirVANA miRNA isolation kit (Ambion).
Profiling of miRNA expression. miRNA expression profiling were carried out using quantitative real-time PCR method by TaqManH Gene Signature Rodent Arrays on a 384 well micro fluidic card in 7900HT Realtime PCR machine (Applied Biosystem, Foster City) according to manufacturer's recommendation. Each miRNA were quantified by two specific amplicon primers and one specific probe. […] In addition, each array contains six control assays—five carefully selected candidate endogenous control assays, and one negative control assay.
Analyses of miRNA gene expression data. Realtime PCR data expressed as Ct values from array A and B were combined using R script (provided by GeneSpring Informatics Support Team) and processed using GeneSpringGX 11.0.2 software (Agilent Technologies, Santa Clara).

Each structure is given as a SMILES string.

The values that follow come from US20140011889A1, “Resveratrol-Containing Compositions and Methods of Use for Cardiac-Related Diseases” (Resveratrol Partners, LLC, priority 2010, published 2014).

Turning to `Oc1ccc(/C=C/c2cc(O)cc(O)c2)cc1` [resveratrol, 3,4′,5-trihydroxy-trans-stilbene], the “aortic flow and developed pressure” value in series [1] (100 mg/kg, gavage 21 days) is “no aortic flow or developed pressure”. In series [1] (2.5 and 25 mg/kg, gavage 21 days, 30 min ischemia, 2 h reperfusion), the “cardioprotection (aortic flow, LVDP, maximum LVdP/dt)” value was “conferred cardioprotection”. Moreover, in series [1] (above 25 mg/kg, gavage 21 days), the “ventricular function (aortic flow, LVDP, maximum LVdP/dt)” value is “ventricular function was deteriorated”. Moreover, in series [1] (rat, doses up to 100 mg/kg), the “hormetic action (dose-response of cardioprotection)” value was “displayed hormetic action”. Besides, in the series on IR rat heart (2 hour reperfusion), the “cardiac output function (aortic flow, coronary flow, LVDP, LVmax dp/dt)” value was “improved”. In addition, the “myocardial infarct size and cardiomyocyte apoptosis” value in the series on IR rat heart (2 h reperfusion) is “reduce”. Besides, the “principal component analysis of miRNA expression, IR treated samples” value in series [2] (FIG. 15C) was “remarkably similar to BL vehicle sample”. Besides, the “miR-21 expression, up” value stood at 61.5 fold in series [2] (IR) and 391.4 fold in series [2] (basal level). Moreover, the “miRNAs whose up or down regulation in IR control was reversed in the opposite direction” value in series [2] (of the 25 miRNAs of Table 11, both treatments) was 11.
